In PubChem BioAssay (NCI) one finds TGI and GI50 data, which are given here for eleven molecules.

Test systems include HCT-15 colon; SF-268 CNS; U251 CNS; HCC-2998 colon; 786-0 renal; OVCAR-8 ovarian; RXF 393 renal; SW-620 colon; SK-MEL-2 melanoma; RPMI-8226 leukemia.
Test in all cases: NCI tumour cell line growth inhibition, 48 h

Molecules are shown by their SMILES. Where “and” joins values, the source holds several entries; their conditions need not be identical. Equal entries are not always repeated.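 Briefly, cells in 96-well plates were exposed to five compound concentrations for 48 h, and endpoints were estimated by linear interpolation. The concentration for 50% growth inhibition is given as GI50. TGI denotes the concentration required for complete inhibition of growth.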

With `Cc1cc(C)c(/C=N/NS(=O)(=O)c2ccccc2)c(C)c1`, the TGI with HCT-15 colon, with SF-268 CNS, in the experiment with U251 CNS, with HCC-2998 colon, with 786-0 renal and in the experiment on OVCAR-8 ovarian was over 100000 nM in each case. The TGI in the experiment on RXF 393 renal, with SW-620 colon, in the experiment on SK-MEL-2 melanoma and with RPMI-8226 leukemia was over 100000 nM each time.
Regarding `CC(=O)ON=C1C=CC(=C(C#N)c2ccccc2)C=C1`, the GI50 was 970 nM in the experiment with HCT-15 colon; 1210 nM with SF-268 CNS; 622 nM with U251 CNS; 11700 nM in the experiment with HCC-2998 colon; 1190 nM with 786-0 renal; 2070 nM in the experiment with OVCAR-8 ovarian. Moreover, the GI50 was 2680 nM with RXF 393 renal, 452 nM in the experiment on SW-620 colon, 2190 nM in the experiment with SK-MEL-2 melanoma and 428 nM with RPMI-8226 leukemia. Besides, the TGI with HCT-15 colon was determined as 14200 nM; with SF-268 CNS, 6330 nM; in the experiment with U251 CNS it was 10500 nM; in the experiment with HCC-2998 colon, 32200 nM; in the experiment on 786-0 renal it was 14100 nM; in the experiment on OVCAR-8 ovarian, 15000 nM. Further, the TGI in the experiment on RXF 393 renal was 11500 nM; in the experiment with SW-620 colon, 7760 nM; in the experiment on SK-MEL-2 melanoma, 15600 nM; in the experiment on RPMI-8226 leukemia, 2940 nM.
Consider `Nc1n[nH]c2ccc([C@@H]3Nc4ccc5cn[nH]c5c4[C@H]4C5CCC(C5)[C@@H]34)cc12` (some centres undefined), for which the GI50 with HCT-15 colon was 414 nM; in the experiment with SF-268 CNS, 2590 nM; in the experiment with U251 CNS, 436 nM; with HCC-2998 colon, 962 nM; with 786-0 renal it was 950 nM; in the experiment on OVCAR-8 ovarian it was 606 nM. For the same molecule, the GI50 is 236 nM in the experiment on RXF 393 renal, 401 nM in the experiment with SW-620 colon, 621 nM with SK-MEL-2 melanoma and 346 nM with RPMI-8226 leukemia. Moreover, the TGI in the experiment on HCT-15 colon is over 100000 nM; with SF-268 CNS, over 100000 nM; with U251 CNS, over 100000 nM; in the experiment on HCC-2998 colon it was over 50200 nM; in the experiment with 786-0 renal, 98600 nM; in the experiment on OVCAR-8 ovarian, over 100000 nM. Further, the TGI in the experiment with RXF 393 renal was 724 nM; in the experiment on SW-620 colon, over 100000 nM; in the experiment on SK-MEL-2 melanoma, over 100000 nM; with RPMI-8226 leukemia, 11100 nM.
As for `O=C(Nc1cccc(-n2cc(-c3ccncc3)c(-c3ccc(Cl)c(O)c3)n2)c1)Nc1ccc(Cl)c(Cl)c1`, the GI50 in the experiment on HCT-15 colon was 1230 nM; with SF-268 CNS it was 1490 nM; in the experiment on U251 CNS it was 1510 nM; in the experiment on HCC-2998 colon, 2890 nM; in the experiment on 786-0 renal, 7220 nM; in the experiment with OVCAR-8 ovarian, 1210 nM. Besides, the GI50 in the experiment with RXF 393 renal is 1000 nM; with SW-620 colon, 1460 nM; in the experiment on SK-MEL-2 melanoma it was 1030 nM; in the experiment with RPMI-8226 leukemia, 1030 nM. The TGI in the experiment with HCT-15 colon is 29600 nM; in the experiment with SF-268 CNS, 10900 nM; with U251 CNS, 9680 nM; with HCC-2998 colon, 13900 nM; in the experiment on 786-0 renal, over 32500 nM; in the experiment with OVCAR-8 ovarian, over 32500 nM. The TGI is 6400 nM with RXF 393 renal, over 32500 nM in the experiment on SW-620 colon, 2640 nM with SK-MEL-2 melanoma and over 32500 nM with RPMI-8226 leukemia.
Turning to `Fc1ccc(Nc2nc3nonc3nc2Nc2ccc(I)cc2)cc1`, the GI50 in the experiment with HCT-15 colon is 302 nM; with SF-268 CNS it was 367 nM; in the experiment with U251 CNS it was 293 nM; in the experiment with HCC-2998 colon, 425 nM; in the experiment on 786-0 renal it was 298 nM; in the experiment on OVCAR-8 ovarian it was 312 nM. Moreover, the GI50 was 237 nM in the experiment with RXF 393 renal, 387 nM in the experiment on SW-620 colon, 213 nM in the experiment on SK-MEL-2 melanoma and 85.5 nM in the experiment on RPMI-8226 leukemia. In addition, the TGI came to 10500 nM in the experiment on HCT-15 colon; 17900 nM with SF-268 CNS; 10800 nM in the experiment on U251 CNS; 9240 nM with HCC-2998 colon; 2590 nM in the experiment on 786-0 renal; 12800 nM in the experiment with OVCAR-8 ovarian. The TGI turned out to be 817 nM in the experiment with RXF 393 renal, 15600 nM with SW-620 colon, 617 nM in the experiment on SK-MEL-2 melanoma and 2130 nM in the experiment on RPMI-8226 leukemia.
Turning to `COC(=O)[C@]12CC[C@@H](C)[C@H](C)[C@@H]1C1=CC[C@@H]3[C@@](C)(CC#N)C4=C(C[C@@]3(C)[C@]1(C)CC2)OC[C@]4(C)C=O`, the GI50 is 3100 nM with HCT-15 colon; 4380 nM with SF-268 CNS; 3610 nM with U251 CNS; 5810 nM in the experiment with HCC-2998 colon; 11600 nM with 786-0 renal; 4500 nM with OVCAR-8 ovarian. For the same molecule, the GI50 in the experiment on RXF 393 renal was 12000 nM; in the experiment on SW-620 colon, 4160 nM; in the experiment with SK-MEL-2 melanoma, 4310 nM; in the experiment on RPMI-8226 leukemia, 3050 nM. The TGI is 23200 nM in the experiment with HCT-15 colon; over 100000 nM in the experiment on SF-268 CNS; 19200 nM in the experiment on U251 CNS; 33000 nM in the experiment with HCC-2998 colon; 71100 nM in the experiment with 786-0 renal; over 100000 nM in the experiment on OVCAR-8 ovarian. The TGI in the experiment with RXF 393 renal was found to be 36100 nM; with SW-620 colon, 30600 nM; with SK-MEL-2 melanoma, 18000 nM; in the experiment on RPMI-8226 leukemia it was 13600 nM.
As to `CCCCOC(=O)c1c(C)[nH]c(/C=C2\N=C(c3ccc[nH]3)C=C2OC)c1C`, the GI50 is 53 nM in the experiment with HCT-15 colon; 242 nM in the experiment on SF-268 CNS; 120 nM in the experiment on U251 CNS; 138 nM in the experiment with HCC-2998 colon; 267 nM in the experiment on 786-0 renal; 216 nM with OVCAR-8 ovarian. For the same molecule, the GI50 in the experiment with RXF 393 renal is 537 nM; with SW-620 colon, 56.9 nM; in the experiment on SK-MEL-2 melanoma, 103 nM; in the experiment with RPMI-8226 leukemia it was 175 nM. Also, the TGI in the experiment on HCT-15 colon amounted to 1290 nM; in the experiment on SF-268 CNS, 9070 nM; in the experiment on U251 CNS, 1760 nM; with HCC-2998 colon, 2060 nM; with 786-0 renal it was 3090 nM; in the experiment on OVCAR-8 ovarian it was 13800 nM. For the same molecule, the TGI stood at 3070 nM with RXF 393 renal, 1440 nM in the experiment on SW-620 colon, 381 nM in the experiment on SK-MEL-2 melanoma and 2040 nM in the experiment on RPMI-8226 leukemia.
As to `CC(=O)N[C@@H](Cc1ccc(OP(=O)(O)O)cc1)C(=O)N[C@H]1CCC(=O)N2CCC[C@@H](C(=O)NC3CCc4ccccc43)N2C1=O` (some centres undefined), the GI50 in the experiment on HCT-15 colon, in the experiment with SF-268 CNS, with U251 CNS, with HCC-2998 colon, in the experiment on 786-0 renal and with OVCAR-8 ovarian was over 25000 nM throughout. The GI50 in the experiment on RXF 393 renal, in the experiment on SW-620 colon, in the experiment on SK-MEL-2 melanoma and in the experiment with RPMI-8226 leukemia was over 25000 nM in each case. The TGI in the experiment on HCT-15 colon, in the experiment with SF-268 CNS, in the experiment with U251 CNS, in the experiment on HCC-2998 colon, in the experiment with 786-0 renal and with OVCAR-8 ovarian was over 25000 nM throughout. Also, the TGI in the experiment with RXF 393 renal, with SW-620 colon, in the experiment with SK-MEL-2 melanoma and with RPMI-8226 leukemia was over 25000 nM each time.
On to `Cc1cnc(-c2ccc(-c3ccc(NC(=O)Nc4c(F)cc(F)cc4F)cc3F)c3c2C(=O)NC3)[nH]1`, for which the GI50 in the experiment with HCT-15 colon was 1820 nM and 948 nM; in the experiment with SF-268 CNS, 1170 nM and 3250 nM; with U251 CNS it was 433 nM and 926 nM; with HCC-2998 colon, 2010 nM and 1610 nM; with 786-0 renal, 1250 nM; in the experiment on OVCAR-8 ovarian it was 1250 nM and 2080 nM. Also, the GI50 in the experiment with RXF 393 renal is 1150 nM and 1320 nM; in the experiment with SW-620 colon it was 430 nM; in the experiment with SK-MEL-2 melanoma, 1570 nM and 3750 nM; in the experiment with RPMI-8226 leukemia, 1020 nM and 715 nM. Besides, the TGI is over 100000 nM in the experiment on HCT-15 colon; 20600 nM and 22900 nM with SF-268 CNS; 1850 nM and 2510 nM with U251 CNS; > 100000 nM and 11600 nM in the experiment with HCC-2998 colon; 2860 nM in the experiment with 786-0 renal; 3770 nM and 9450 nM in the experiment on OVCAR-8 ovarian. Further, the TGI in the experiment on RXF 393 renal is 3600 nM and 5580 nM; with SW-620 colon it was 2190 nM; with SK-MEL-2 melanoma, 14300 nM and 21600 nM; in the experiment on RPMI-8226 leukemia, 6020 nM and > 33000 nM.
Consider `COCCn1c2c([n+](Cc3cnccn3)c1C)C(=O)c1ccccc1C2=O`, for which the GI50 is 251 nM with HCT-15 colon; under 10 nM with SF-268 CNS; under 10 nM in the experiment on U251 CNS; under 10 nM with HCC-2998 colon; 14.3 nM with 786-0 renal; under 10 nM with OVCAR-8 ovarian. The GI50 in the experiment on RXF 393 renal was 15.6 nM; in the experiment with SW-620 colon, under 10 nM; with SK-MEL-2 melanoma, under 10 nM; in the experiment with RPMI-8226 leukemia, under 10 nM. For the same molecule, the TGI was over 100000 nM with HCT-15 colon; under 10 nM in the experiment with SF-268 CNS; under 10 nM in the experiment with U251 CNS; 37.3 nM in the experiment on HCC-2998 colon; 99.2 nM in the experiment with 786-0 renal; under 10 nM with OVCAR-8 ovarian. Further, the TGI in the experiment on RXF 393 renal is 128 nM; in the experiment on SW-620 colon it was 17.6 nM; in the experiment with SK-MEL-2 melanoma it was 12.7 nM; with RPMI-8226 leukemia, under 11.4 nM.
As for `O=C1OCC2=C1C(c1cccc(Cl)c1)c1cc3c(cc1N2CCO)CCC3` (centres undefined), the GI50 in the experiment with HCT-15 colon is 47.1 nM; in the experiment on SF-268 CNS it was 65.3 nM; in the experiment on U251 CNS, 37.2 nM; in the experiment on HCC-2998 colon, 92.2 nM; in the experiment on 786-0 renal, 48.5 nM; in the experiment with OVCAR-8 ovarian, 57.7 nM. Besides, the GI50 in the experiment with RXF 393 renal was 23.8 nM; in the experiment with SW-620 colon, 36.9 nM; in the experiment with SK-MEL-2 melanoma it was 32.3 nM; in the experiment on RPMI-8226 leukemia, 38.6 nM. The TGI in the experiment with HCT-15 colon was 12600 nM; in the experiment on SF-268 CNS, 10500 nM; with U251 CNS, 4500 nM; with HCC-2998 colon it was 2930 nM; in the experiment on 786-0 renal it was 10800 nM; in the experiment with OVCAR-8 ovarian, 2980 nM. Further, the results for the TGI in the experiment on SW-620 colon, with SK-MEL-2 melanoma and in the experiment on RPMI-8226 leukemia were 16400 nM, 441 nM and 10100 nM, respectively.
